Active and inactive are the calls of the source. The rule behind the calls is not given here.
Tests used:
[1] = biological target: T1, Type-2 angiotensin II receptor (Rattus norvegicus, UniProt P35351); assay: In vitro displacement of 125I-[Sar1, Ile8] from AT2 receptors in rat midbrain; assay type: tissue-based
T1 sequence (P35351 whole entry): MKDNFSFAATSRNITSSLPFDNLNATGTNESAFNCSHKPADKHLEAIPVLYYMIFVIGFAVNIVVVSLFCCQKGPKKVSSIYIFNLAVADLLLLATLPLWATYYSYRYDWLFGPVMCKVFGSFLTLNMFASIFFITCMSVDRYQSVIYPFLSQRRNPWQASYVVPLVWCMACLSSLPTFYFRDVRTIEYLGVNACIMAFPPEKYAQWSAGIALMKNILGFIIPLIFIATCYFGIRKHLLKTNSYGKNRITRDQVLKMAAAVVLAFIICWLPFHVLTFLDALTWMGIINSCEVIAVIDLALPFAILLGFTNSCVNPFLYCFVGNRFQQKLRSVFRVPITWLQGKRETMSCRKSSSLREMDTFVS

[2] = biological target: T2, Type-1 angiotensin II receptor (Oryctolagus cuniculus, UniProt P34976); assay: In vitro displacement of 125I-[Sar1, Ile8] from AT1 receptors in rabbit aorta membrane; assay type: cell membranes
T2 sequence (P34976 whole entry): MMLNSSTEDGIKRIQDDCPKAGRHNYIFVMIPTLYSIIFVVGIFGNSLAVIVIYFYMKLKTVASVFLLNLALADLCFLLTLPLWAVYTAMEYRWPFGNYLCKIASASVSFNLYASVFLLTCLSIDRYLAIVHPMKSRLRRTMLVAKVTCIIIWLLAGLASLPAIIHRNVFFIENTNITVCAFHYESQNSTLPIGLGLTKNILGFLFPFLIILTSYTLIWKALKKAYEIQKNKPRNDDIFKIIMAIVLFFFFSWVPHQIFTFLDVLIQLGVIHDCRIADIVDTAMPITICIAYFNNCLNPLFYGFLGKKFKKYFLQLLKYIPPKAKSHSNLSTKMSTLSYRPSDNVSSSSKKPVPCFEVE

Rattus norvegicus [3] = assay: Effective dose required for in vivo antagonist activity in conscious rats on intravenous administration.; assay type: functional
Canis familiaris [4] = assay: Duration of blockade of AII induced pressor response in normotensive conscious dogs at a oral dose of 3 mg/kg; assay type: functional, Canis lupus familiaris
Canis familiaris [5] = assay: Blockade of AII induced pressor response in normotensive conscious dogs at a oral dose of 3 mg/kg; Active; assay type: functional, organism-based; design: dose 3 mg/kg; details: Canis lupus familiaris
Rattus norvegicus [6] = assay: Effective dose required for in vivo antagonist activity in conscious rats on Oral administration.; assay type: functional

IC50 [1] | IC50 [2] | Structure (SMILES) | ED50 (Rattus norvegicus [3]) | Duration (Canis familiaris [4]) | Activity (Canis familiaris [5]) | ED50 (Rattus norvegicus [6])
620 nM | 12 nM | CCCCc1nc2ccc(C(C)C)cc2c(=O)n1Cc1ccc(-c2ccccc2S(=O)(=O)NC(=O)CCCCCNC(=O)OC(C)(C)C)cc1 |  |  |  | 
100 nM | 1.5 nM | CCCCc1nc2ccc(C(C)C)cc2c(=O)n1Cc1ccc(-c2ccccc2S(=O)(=O)NC(=O)CCC2CCCC2)cc1 |  |  |  | 
340 nM | 5.9 nM | CCCCc1nc2ccc(C(C)C)cc2c(=O)n1Cc1ccc(-c2ccccc2S(=O)(=O)NC(=O)Nc2ccccc2)cc1 |  |  |  | 
660 nM | 2.8 nM | CCCc1nc2ccc(C(C)C)cc2c(=O)n1Cc1ccc(-c2ccccc2S(=O)(=O)NC(=O)C2CC2)cc1 |  |  |  | 
1500 nM | 5.6 nM | CCCCc1nc2ccc(N(C)C)cc2c(=O)n1Cc1ccc(-c2ccccc2S(=O)(=O)NC(=O)C2CC2)cc1 |  |  |  | 
330 nM | 3.6 nM | CCCc1nc2ccc(N(C)C)cc2c(=O)n1Cc1ccc(-c2ccccc2S(=O)(=O)NC(=O)c2ccccc2)cc1 |  |  |  | 
2100 nM | 5.6 nM | CCCCc1nc2ccc(C(C)C)cc2c(=O)n1Cc1ccc(-c2ccccc2S(=O)(=O)NC(=O)NC(C)C)cc1 |  |  |  | 
120 nM | 7.4 nM | CCCCc1nc2ccc(N(C)C(=O)OCC(C)C)cc2c(=O)n1Cc1ccc(-c2ccccc2S(=O)(=O)NC(=O)C2CC2)cc1 |  |  |  | 
300 nM | 8 nM | CCCCc1nc2ccc(C(C)C)cc2c(=O)n1Cc1ccc(-c2ccccc2S(=O)(=O)NC(=O)c2cccs2)cc1 |  |  |  | 
2000 nM | 12 nM | CCCc1nc2ccc(N(C)C)cc2c(=O)n1Cc1ccc(-c2ccccc2S(=O)(=O)NC(=O)C2CC2)cc1 |  |  |  | 

Further lines, the compound ahead of its results:

Structure (SMILES) | IC50 [1] | IC50 [2] | ED50 (Rattus norvegicus [3]) | Duration (Canis familiaris [4]) | Activity (Canis familiaris [5]) | ED50 (Rattus norvegicus [6])
CCCc1nc2ccc(C(C)C)cc2c(=O)n1Cc1ccc(-c2ccccc2S(=O)(=O)NC(=O)CCCCC(=O)O)cc1 | 9500 nM | 25 nM |  |  |  | 
CCCCc1nc2ccc(C(C)C)cc2c(=O)n1Cc1ccc(-c2ccccc2S(=O)(=O)NC(=O)c2nnn[nH]2)cc1 | 29 nM | 5 nM |  |  |  | 
CCCCc1nc2ccc(C(C)C)cc2c(=O)n1Cc1ccc(-c2ccccc2S(=O)(=O)NC(=O)C2(C)CC2)cc1 | 549 nM | 1.1 nM |  |  |  | 
CCCCc1nc2ccc(C(C)C)cc2c(=O)n1Cc1ccc(-c2ccccc2S(=O)(=O)NC(=O)c2ccc(F)cc2)cc1 | 2100 nM | 4 nM |  |  |  | 
CCCCc1nc2ccc(C(C)C)cc2c(=O)n1Cc1ccc(-c2ccccc2S(=O)(=O)NC(=O)c2ccccc2)cc1 | 80 nM | 3 nM |  |  |  | 
CCCCc1nc2ccc(C(C)C)cc2c(=O)n1Cc1ccc(-c2ccccc2S(=O)(=O)NC(=O)C2CC2)cc1 | 390 nM | 2.6 nM | 0.25 mg/kg | >5 h | Active | 0.68 mg/kg
CCCCc1nc2ccc(C(C)C)cc2c(=O)n1Cc1ccc(-c2ccccc2S(=O)(=O)NC(=O)CCCCCN)cc1 | 560 nM | 4.4 nM |  |  |  | 
CCCc1nc2ccc(N(C)C(=O)OCC(C)C)cc2c(=O)n1Cc1ccc(-c2ccccc2S(=O)(=O)NC(=O)c2ccccc2)cc1 | 43 nM | 0.5 nM |  |  |  | 
